Laboratory results taken from patent US20160304556A1, “[…] ACTIVE COMPOUNDS AND THEIR METHODS OF USE” (AGIOS PHARMACEUTICALS, INC, priority 2012, published 2016).

How the values were obtained:
HT1080 cells = experiment: Cellular assay, inhibition of 2-HG production (LC-MS) in HT1080 cells; format: cell-based; details: Homo sapiens, HT-1080, 48 hours, LC-MS of media
Experimental: Cells (HT1080 or U87MG) are grown in T125 flasks in DMEM containing 10% FBS, 1× penicillin/streptomycin and 500 ug/mL G418 (present in U87MG cells only). They are harvested by trypsin and seeded into 96 well white bottom plates at a density of 5000 cell/well in 100 μl/well in DMEM with 10% FBS. No cells are placed in columns 1 and 12. Cells are incubated overnight at 37° C. in 5% CO2. The next day test compounds are made up at 2× the final concentration and 100 μl are added to each cell well. The final concentration of DMSO is 0.2% and the DMSO control wells are plated in row G. The plates are then placed in the incubator for 48 hours. At 48 hours, 100 μl of media is removed from each well and analyzed by LC-MS for 2-HG concentrations. The cell plate is placed back in the incubator for another 24 hours. At 72 hours post compound addition, 10 mL/plate of Promega Cell Titer Glo reagent is thawed and mixed. The cell plate is removed from the incubator and allowed to equilibrate to room temperature. Then 100 μl of Promega Cell Titer Glo reagent is added to each well of media. The cell plate is then placed on an orbital shaker for 10 minutes and then allowed to sit at room temperature for 20 minutes. The plate is then read for luminescence with an integration time of 500 ms.
The IC50 for inhibition of 2-HG production (concentration of test compound to reduce 2HG production by 50% compared to control) in these two cell lines for various compounds of formula I is set forth in Table 2 above.

IDH1 R132H = IDH1 R132H (Homo sapiens, UniProt O75874, R132H); experiment: In vitro NADPH depletion assay for IDH1m R132H inhibitors; format: biochemical; details: enzyme, diaphorase/resazurin readout, read-out: IDH R132H IC50
Sequence of IDH1 R132H (O75874 whole entry R132H): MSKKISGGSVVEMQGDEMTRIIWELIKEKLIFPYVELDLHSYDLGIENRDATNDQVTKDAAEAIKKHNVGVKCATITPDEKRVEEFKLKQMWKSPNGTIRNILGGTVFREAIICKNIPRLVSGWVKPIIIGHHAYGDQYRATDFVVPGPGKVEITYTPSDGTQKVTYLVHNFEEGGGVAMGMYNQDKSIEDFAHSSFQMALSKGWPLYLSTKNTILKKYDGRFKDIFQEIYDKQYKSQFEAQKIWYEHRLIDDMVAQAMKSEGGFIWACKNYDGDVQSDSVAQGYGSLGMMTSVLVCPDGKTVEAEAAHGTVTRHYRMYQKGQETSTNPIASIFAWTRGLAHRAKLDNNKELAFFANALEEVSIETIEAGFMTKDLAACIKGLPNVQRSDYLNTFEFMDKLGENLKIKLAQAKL
Experimental: A test compound is prepared as 10 mM stock in DMSO and diluted to 50× final concentration in DMSO, for a 50 μl reaction mixture. IDH enzyme activity converting alpha-ketoglutarate to 2-hydroxyglutaric acid is measured using a NADPH depletion assay. In the assay the remaining cofactor is measured at the end of the reaction with the addition of a catalytic excess of diaphorase and resazurin, to generate a fluorescent signal in proportion to the amount of NADPH remaining. IDH1-R132 homodimer enzyme is diluted to […] in 40 μl of Assay Buffer(150 mM NaCl, 20 mM Tris-Cl pH 7.5, 10 mM MgCl2, 0.05% BSA, 2 mM b-mercaptoethanol); 1 μl of test compound dilution in DMSO is added and the mixture is incubated for 60 minutes at room temperature. The reaction is started with the addition of 10 μl of Substrate Mix ([…], 5 mM alpha-ketoglutarate, in Assay Buffer) and the mixture is incubated for 90 minutes at room temperature. The reaction is terminated with the addition of 25 μl of Detection Buffer (36 μg/ml diaphorase, […], in 1× Assay Buffer), and is incubated for 1 minute before reading on a SpectraMax platereader at Ex544/Em590.
Representative compounds of formula I set forth in Table 1 were tested in this assay and the results are set forth below in Table 3.

Row | IC50 (HT1080 cells) | IC50 (IDH1 R132H) | SMILES
1 | 1000 to 2000 nM | 100 to 500 nM | Cc1ccccc1[C@@H](C(=O)NC1CCCCC1)N(C(=O)[C@H]1CCCN1S(C)(=O)=O)c1cccc(F)c1 [Compound 2]
2 | 100 to 500 nM | 100 to 500 nM | O=C(NC1CC(F)(F)C1)[C@H](c1ccccc1Cl)N(C(=O)[C@@H]1Cc2ccccc2N1)c1cc(F)cc(F)c1 (single isomer, unassigned) [Compound 118]
3 | 500 to 1000 nM | ≤ 100 nM | COC(=O)N1COC[C@H]1C(=O)N(c1cccc(F)c1)[C@H](C(=O)NC1CC(F)(F)C1)c1ccccc1Cl [Compound 54]
4 |  | 500 to 1000 nM | CNC(=O)N1CCCC[C@@H]1C(=O)N(c1cccc(F)c1)[C@H](C(=O)NC1CCCCC1)c1ccccc1C [Compound 3]
5 | 100 to 500 nM | ≤ 100 nM | O=C(NC1CC(F)(F)C1)C(c1ccccc1Cl)N(C(=O)Cc1ccncc1)c1cccc(F)c1 (stereo not shown) [Compound 64]
6 | 100 to 500 nM | ≤ 100 nM | O=C(NC1CC(F)(F)C1)C(c1ccccc1Cl)N(C(=O)[C@@H]1CCCc2nccn21)c1cccc(F)c1 (stereo in doubt) [Compound 41]
7 | 100 to 500 nM |  | Cc1ccccc1C(C(=O)NC1CC(F)(F)C1)N(C(=O)CNc1cccnc1F)c1cccc(F)c1 (stereo not shown) [Compound 19]
8 | 1000 to 2000 nM | 100 to 500 nM | CC(=O)N1CCC[C@H]1C(=O)N(c1cccc(F)c1)[C@H](C(=O)NC1CCCCC1)c1ccccc1C [Compound 9]
9 | 100 to 500 nM | ≤ 100 nM | O=C(NC1CCCCC1)C(c1ccccc1Cl)N(C(=O)C1CCc2ccccc2N1)c1cccc(F)c1 (stereo not shown) [Compound 31, N-(1-(2-chlorophenyl)-2-(cyclohexylamino)-2-oxoethyl)-N-(3-fluorophenyl)-1,2,3,4-tetrahydroquinoline-2-carboxamide]
10 | 100 to 500 nM |  | Cc1ccccc1C(C(=O)NC1CCC(F)(F)CC1)N(C(=O)CNc1cccnc1F)c1cccc(F)c1 (stereo not shown) [Compound 16]
11 | 100 to 500 nM | ≤ 100 nM | COC(=O)N1CCC[C@H]1C(=O)N(c1cccc(F)c1)[C@H](C(=O)NC1CC(F)(F)C1)c1ccccc1Cl [Compound 42, (S)-methyl 2-(((S)-1-(2-chlorophenyl)-2-((3,3-difluorocyclobutyl)amino)-2-oxoethyl)(3-fluorophenyl)carbamoyl)pyrrolidine-1-carboxylate]
12 | 500 to 1000 nM | 100 to 500 nM | N#Cc1cccc(N(C(=O)Cn2cnc(Cl)c2Cl)C(C(=O)NC2CCCCC2)c2ccccc2Cl)c1 (stereo not shown) [Compound 27]
13 |  | 100 to 500 nM | O=C(NC1CCC(F)(F)CC1)C(c1ccccc1Cl)N(C(=O)Cn1cnc(Cl)c1Cl)c1ccc(F)c(F)c1 (stereo not shown) [Compound 38]
14 |  | 500 to 1000 nM | O=C(NC1CC(F)(F)C1)C(c1ccccc1Cl)N(C(=O)CN1CCOC1=O)c1cccc(F)c1 (stereo not shown) [Compound 60, 2-(2-chlorophenyl)-N-(3,3-difluorocyclobutyl)-2-(N-(3-fluoro-phenyl)-2-(2-oxooxazolidin-3-yl)acetamido)acetamide]
15 |  | 100 to 500 nM | Cc1nccn1CC(=O)N(c1cccc(F)c1)C(C(=O)NC1CC(F)(F)C1)c1ccccc1Cl (stereo not shown) [Compound 59]
16 | 500 to 1000 nM | 100 to 500 nM | COC(=O)N1CCC[C@H]1C(=O)N(c1cccc(S(N)(=O)=O)c1)[C@H](C(=O)NC1CCC(F)(F)CC1)c1ccccc1Cl [Compound 57]
17 |  | 100 to 500 nM | O=C(NC1CC(F)(F)C1)[C@@H](c1ccccc1Cl)N(C(=O)[C@@H]1Cc2ccccc2N1)c1cc(F)cc(F)c1 (single isomer, unassigned) [Compound 117]
18 | 100 to 500 nM | ≤ 100 nM | O=C(NC1CCCCC1)C(c1ccccc1Cl)N(C(=O)Cn1cncn1)c1cccc(F)c1 (stereo not shown) [Compound 24]
19 | 100 to 500 nM | ≤ 100 nM | O=C(NC1CC(F)(F)C1)C(c1ccccc1Cl)N(C(=O)CNc1cccnc1F)c1cccc(F)c1 (stereo not shown) [Compound 47]
20 | 500 to 1000 nM | 100 to 500 nM | O=C(NC1CCCCC1)C(c1ccc(F)cc1F)N(C(=O)Cn1cnc(Cl)c1Cl)c1ccc(F)c(F)c1 (stereo not shown) [Compound 30, N-cyclohexyl-2-(2-(4,5-dichloro-1H-imidazol-1-yl)-N-(3,4-difluorophenyl)acetamido)-2-(2,4-difluorophenyl)acetamide]
21 | 1000 to 2000 nM | 500 to 1000 nM | Cc1ccccc1C(C(=O)NC1CC(F)(F)C1)N(C(=O)Cn1ccnc1C)c1cccc(F)c1 (stereo not shown) [Compound 18]
22 | 1000 to 2000 nM | 100 to 500 nM | O=C(NC1CCC(F)(F)CC1)C(c1ccccc1Cl)N(C(=O)Cn1ccnn1)c1cccc(F)c1 (stereo not shown) [Compound 46]
23 | 100 to 500 nM | 100 to 500 nM | O=C(NC1CCCCC1)C(c1ccccc1Cl)N(C(=O)C1Cc2ccccc2N1)c1cccc(F)c1 (stereo not shown) [Compound 32]

Row | IC50 (HT1080 cells) | IC50 (IDH1 R132H) | SMILES
24 | 100 to 500 nM |  | O=C(NC1CCCCC1)C(c1ccccc1Cl)N(C(=O)Cn1cnc(Cl)c1Cl)c1cccc(F)c1 (stereo not shown) [Compound 21]
25 | 1000 to 2000 nM |  | O=C(NC1CC(F)(F)C1)[C@H](c1ccccc1Cl)N(C(=O)C1CCN1c1ncccn1)c1cccc(F)c1 (stereo partly shown) [Compound 103]
26 |  | 500 to 1000 nM | Cc1ccccc1[C@@H](C(=O)NC1CCCCC1)N(C(=O)[C@H]1CCCCN1C(=O)N(C)C)c1cccc(F)c1 [Compound 4]
27 | 100 to 500 nM | ≤ 100 nM | O=C(NC1CCC(F)(F)CC1)C(c1ccccc1Cl)N(C(=O)Cn1cnc(Cl)c1Cl)c1cccc(F)c1 (stereo not shown) [Compound 33]
28 | 1000 to 2000 nM | 100 to 500 nM | CCS(=O)(=O)NCC(=O)N(c1cccc(F)c1)C(C(=O)NC1CCCCC1)c1ccccc1C (stereo not shown) [Compound 6]
29 |  | 500 to 1000 nM | O=C(NC1CC(F)(F)C1)C(c1ccccc1Cl)N(C(=O)c1cccc2nccn12)c1cccc(F)c1 (stereo not shown) [Compound 40]
30 | 1000 to 2000 nM | 100 to 500 nM | O=C(NC1CCC(F)(F)CC1)C(c1ccccc1Cl)N(C(=O)Cn1cncn1)c1cccc(F)c1 (stereo not shown) [Compound 45]
31 |  | 500 to 1000 nM | Cc1ccccc1C(C(=O)NC1CCCCC1)N(C(=O)CNC(=O)OC(C)(C)C)c1cccc(F)c1 (stereo not shown) [Compound 7]
32 |  | 500 to 1000 nM | O=C(NC1CCC(F)(F)CC1)C(c1ccccc1Cl)N(C(=O)c1cc2ccccc2[nH]1)c1cccc(F)c1 (stereo not shown) [Compound 34]
33 |  | 500 to 1000 nM | CNC(=O)N1CCC[C@@H]1C(=O)N(c1cccc(F)c1)[C@H](C(=O)NC1CCCCC1)c1ccccc1C [Compound 13]
34 |  | 500 to 1000 nM | Cc1ccccc1C(C(=O)NC1CCCCC1)N(C(=O)CCNC(=O)OC(C)(C)C)c1cccc(F)c1 (stereo not shown) [Compound 8]
35 |  | 500 to 1000 nM | O=C(NC1CCCCC1)C(c1ccccc1Cl)N(C(=O)c1cc2ccccc2[nH]1)c1cccc(F)c1 (stereo not shown) [Compound 20]
36 |  | 500 to 1000 nM | CC(C)(C)OC(=O)N1CCC[C@H]1C(=O)N(c1cccc(F)c1)[C@H](C(=O)NC1CC(F)(F)C1)c1ccccc1Cl [Compound 39]
37 |  | 500 to 1000 nM | Cc1ccccc1[C@@H](C(=O)NC1CCCCC1)N(C(=O)[C@H]1CCCN1)c1cccc(F)c1 [Compound 14]
38 |  | 500 to 1000 nM | CC(C)(C)OC(=O)N1CCC[C@H]1C(=O)N(c1cccc(F)c1)[C@H](C(=O)NC1CCC(F)(F)CC1)c1ccccc1Cl [Compound 44]
39 |  | 100 to 500 nM | Cc1ccccc1C(C(=O)NC1CC2CC2C1)N(C(=O)CNc1cccnc1F)c1cccc(F)c1 (stereo not shown) [Compound 15]
40 |  | 100 to 500 nM | O=C(NC1CCC(F)(F)CC1)C(c1ccccc1Cl)N(C(=O)Cn1cncn1)c1ccc(F)c(F)c1 (stereo not shown) [Compound 37]
41 |  | 100 to 500 nM | N#Cc1ccccc1C(C(=O)NC1CCCCC1)N(C(=O)Cn1cnc(Cl)c1Cl)c1cccc(F)c1 (stereo not shown) [Compound 28]
42 |  | 100 to 500 nM | CNS(=O)(=O)c1cccc(N(C(=O)[C@@H]2CCCN2C(=O)OC)[C@H](C(=O)NC2CC(F)(F)C2)c2ccccc2Cl)c1 [Compound 58]
43 |  | 100 to 500 nM | COC(=O)NCCC(=O)N(c1cccc(F)c1)C(C(=O)NC1CCCCC1)c1ccccc1C (stereo not shown) [Compound 12]
44 |  | 500 to 1000 nM | Cc1ccccc1[C@@H](C(=O)NC1CCCCC1)N(C(=O)[C@@H]1CCCN1S(C)(=O)=O)c1cccc(F)c1 [Compound 1]
45 |  | 100 to 500 nM | CC(=O)N1CCC[C@@H]1C(=O)N(c1cccc(F)c1)[C@H](C(=O)NC1CCCCC1)c1ccccc1C [Compound 10]
